Data as given in ChEMBL document CHEMBL1201861, “Genomics of Drug Sensitity in Cancer screening data, Wellcome Trust Sanger Institute”.

Legend:
Assay in all cases: cells
Assay type in all cases: functional, cell-based
Details in all cases: Homo sapiens
Ca9-22 = tested on: Ca9-22;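 also: growth inhibition of Ca9-22 cells, read out with a cell viability assay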
Description: SANGER: Inhibition of human Ca9-22 cell growth in a cell viability assay.

Calu-3 = tested on: Calu-3;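 also: growth inhibition of human Calu-3 cells, determined with a cell viability assay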
Description: SANGER: Inhibition of human Calu-3 cell growth in a cell viability assay.

D-392MG = tested on: D-392MG
EFO-27 = tested on: EFO-27;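 also: growth inhibition of EFO-27 cells, read out with a cell viability assay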
Description: SANGER: Inhibition of human EFO-27 cell growth in a cell viability assay.

HCC1395 = tested on: HCC1395;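 also: growth inhibition of HCC1395 cells, read out by a cell viability assay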
Description: SANGER: Inhibition of human HCC1395 cell growth in a cell viability assay.

HO-1-N-1 = tested on: HO-1-N-1;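 also: growth inhibition of human HO-1-N-1 cells, read out with a cell viability assay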
Description: SANGER: Inhibition of human HO-1-N-1 cell growth in a cell viability assay.

HPAF-II = tested on: HPAF-II;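 also: growth inhibition of HPAF-II cells, read out with a cell viability assay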
Description: SANGER: Inhibition of human HPAF-II cell growth in a cell viability assay.

HT55 = tested on: HT55;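 also: cell viability readout measuring growth inhibition of human HT55 cells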
Description: SANGER: Inhibition of human HT55 cell growth in a cell viability assay.

KP-N-YN = tested on: KP-N-YN;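 also: growth inhibition of KP-N-YN cells, read out with a cell viability assay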
Description: SANGER: Inhibition of human KP-N-YN cell growth in a cell viability assay.

KYSE-180 = tested on: KYSE-180;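 also: growth inhibition of KYSE-180 cells, read out with a cell viability assay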
Description: SANGER: Inhibition of human KYSE-180 cell growth in a cell viability assay.

KYSE-70 cell line = tested on: KYSE-70 cell line;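 also: cell viability assay read-out, with IC50 expressing suppression of KYSE-70 cell growth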
Description: SANGER: Inhibition of human KYSE-70 cell growth in a cell viability assay.

LCLC-103H cell line = tested on: LCLC-103H cell line
Description: SANGER: Inhibition of human LCLC-103H cell growth in a cell viability assay.

LoVo = tested on: LoVo;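 also: growth inhibition of human LoVo cells, read out with a cell viability assay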
Description: SANGER: Inhibition of human LoVo cell growth in a cell viability assay.

MDA-MB-361 = tested on: MDA-MB-361
MDA-MB-415 = tested on: MDA-MB-415
ME-180 = tested on: ME-180;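 also: cell viability assay measuring growth inhibition of ME-180 cells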
Description: SANGER: Inhibition of human ME-180 cell growth in a cell viability assay.

MFE-280 = tested on: MFE-280;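 also: growth inhibition of MFE-280 cells, determined with a cell viability readout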
Description: SANGER: Inhibition of human MFE-280 cell growth in a cell viability assay.

NB17 = tested on: NB17;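 also: growth inhibition of NB17 cells, read out with a cell viability assay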
Description: SANGER: Inhibition of human NB17 cell growth in a cell viability assay.

NCI-H1437 = tested on: NCI-H1437;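 also: growth inhibition of human NCI-H1437 cells, read out by a cell viability assay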
Description: SANGER: Inhibition of human NCI-H1437 cell growth in a cell viability assay.

NCI-H1755 = tested on: NCI-H1755;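 also: cell viability readout used to measure growth inhibition of NCI-H1755 cells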
Description: SANGER: Inhibition of human NCI-H1755 cell growth in a cell viability assay.

NCI-H2087 = tested on: NCI-H2087;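 also: growth inhibition determined with a cell viability readout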
Description: SANGER: Inhibition of human NCI-H2087 cell growth in a cell viability assay.

NCI-H2122 = tested on: NCI-H2122;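 also: growth inhibition of the cells, read out with a cell viability assay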
Description: SANGER: Inhibition of human NCI-H2122 cell growth in a cell viability assay.

NCI-H2452 = tested on: NCI-H2452;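 also: growth inhibition of NCI-H2452 cells, read out with a cell viability assay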
Description: SANGER: Inhibition of human NCI-H2452 cell growth in a cell viability assay.

NCI-H292 = tested on: NCI-H292;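 also: growth inhibition of NCI-H292 cells, read out with a cell viability assay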
Description: SANGER: Inhibition of human NCI-H292 cell growth in a cell viability assay.

NCI-H522 = tested on: NCI-H522;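 also: cell viability assay measuring growth inhibition of human NCI-H522 cells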
Description: SANGER: Inhibition of human NCI-H522 cell growth in a cell viability assay.

NCI-H810 = tested on: NCI-H810;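 also: IC50 reflects inhibition of cancer cell line growth, read out with a cell viability assay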
Description: SANGER: Inhibition of human NCI-H810 cell growth in a cell viability assay.

OE33 = tested on: OE33;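 also: growth inhibition of human OE33 cells, measured by a cell viability assay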
Description: SANGER: Inhibition of human OE33 cell growth in a cell viability assay.

PC-14 = tested on: PC-14;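 also: cell viability assay measuring inhibition of PC-14 cell growth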
Description: SANGER: Inhibition of human PC-14 cell growth in a cell viability assay.

RD = tested on: RD
Description: SANGER: Inhibition of human RD cell growth in a cell viability assay.

RPMI-7951 = tested on: RPMI-7951
Description: SANGER: Inhibition of human RPMI-7951 cell growth in a cell viability assay.

RT-112 = tested on: RT-112
Description: SANGER: Inhibition of human RT-112 cell growth in a cell viability assay.

SCC-4 = tested on: SCC-4;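 also: growth inhibition of human SCC-4 cells, read out as cell viability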
Description: SANGER: Inhibition of human SCC-4 cell growth in a cell viability assay.

SF-295 = tested on: SF-295;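 also: growth inhibition of SF-295 cells, read out with a cell viability assay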
Description: SANGER: Inhibition of human SF295 cell growth in a cell viability assay.

SK-LU-1 = tested on: SK-LU-1;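 also: cell viability assay measuring growth inhibition of human SK-LU-1 cells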
Description: SANGER: Inhibition of human SK-LU-1 cell growth in a cell viability assay.

SW1463 = tested on: SW1463;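 also: growth inhibition of SW1463 cells, determined with a cell viability assay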
Description: SANGER: Inhibition of human SW1463 cell growth in a cell viability assay.

SW-620 = tested on: SW-620;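 also: growth inhibition of human SW-620 cells, measured by a cell viability assay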
Description: SANGER: Inhibition of human SW620 cell growth in a cell viability assay.

SW948 = tested on: SW948;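 also: growth inhibition of SW948 cells, read out with a cell viability assay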
Description: SANGER: Inhibition of human SW948 cell growth in a cell viability assay.

5637 = tested on: 5637
Description: SANGER: Inhibition of human 5637 cell growth in a cell viability assay.

639-V = tested on: 639-V;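 also: growth inhibition of 639-V cells, read out with a cell viability assay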
Description: SANGER: Inhibition of human 639-V cell growth in a cell viability assay.

8505C = tested on: 8505C
Description: SANGER: Inhibition of human 8505C cell growth in a cell viability assay.

ABC-1 = tested on: ABC-1;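 also: growth inhibition of human ABC-1 cells, read out by a cell viability assay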
Description: SANGER: Inhibition of human ABC-1 cell growth in a cell viability assay.

AGS = tested on: AGS;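 also: growth inhibition of AGS cells, determined with a cell viability assay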
Description: SANGER: Inhibition of human AGS cell growth in a cell viability assay.

BEN = tested on: BEN;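 also: growth inhibition of the BEN cell line, read out with a cell viability assay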
Description: SANGER: Inhibition of human BEN cell growth in a cell viability assay.

BFTC-909 = tested on: BFTC-909
Description: SANGER: Inhibition of human BFTC-909 cell growth in a cell viability assay.

BT-20 = tested on: BT-20;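 also: cell viability assay measuring suppression of growth in human BT-20 cells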
Description: SANGER: Inhibition of human BT-20 cell growth in a cell viability assay.

TYK-nu = tested on: TYK-nu;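 also: growth inhibition of human TYK-nu cells, read out by a cell viability assay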
Description: SANGER: Inhibition of human TYK-nu cell growth in a cell viability assay.

UACC-62 = tested on: UACC-62;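 also: growth inhibition of human UACC-62 cells, read out by a cell viability assay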
Description: SANGER: Inhibition of human UACC-62 cell growth in a cell viability assay.

D-336MG = tested on: D-336MG
Description: SANGER: Inhibition of human D-336MG cell growth in a cell viability assay.

D-542MG = tested on: D-542MG
Description: SANGER: Inhibition of human D-542MG cell growth in a cell viability assay.

MKN-28 = tested on: MKN-28;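 also: cell viability assay read-out, IC50 reflects suppression of growth of human MKN-28 cells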
Description: SANGER: Inhibition of human MKN28 cell growth in a cell viability assay.

NCI-H1703 = tested on: NCI-H1703;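 also: growth inhibition of NCI-H1703 cells, read out via a cell viability assay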
Description: SANGER: Inhibition of human NCI-H1703 cell growth in a cell viability assay.

NCI-H358 = tested on: NCI-H358;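 also: growth inhibition of NCI-H358 human cells, read out with a cell viability assay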
Description: SANGER: Inhibition of human NCI-H358 cell growth in a cell viability assay.

SW837 = tested on: SW837;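 also: growth inhibition of SW837 cells, determined with a cell viability assay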
Description: SANGER: Inhibition of human SW837 cell growth in a cell viability assay.

A 172 = tested on: A 172;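 also: growth inhibition of A172 cells, measured with a cell viability readout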
Description: SANGER: Inhibition of human A172 cell growth in a cell viability assay.

Measured: IC50

CC(=O)c1c(C)c2cnc(Nc3ccc(N4CCNCC4)cn3)nc2n(C2CCCC2)c1=O [PALBOCICLIB]
2.26 µM: SW-620
2.85 µM: NCI-H292
0.998 µM: TYK-nu
1.62 µM: SK-LU-1
2.76 µM: RPMI-7951
2.32 µM: EFO-27
1.79 µM: ABC-1
0.321 µM: RT-112
0.963 µM: HO-1-N-1
not listed: D-336MG | D-542MG | MKN-28 | NCI-H1703 | NCI-H358 | SW837 | A 172
> 4 µM: all other assays above

CCCS(=O)(=O)Nc1ccc(F)c(C(=O)c2c[nH]c3ncc(Cl)cc23)c1F [PLX-4720]
5.8 µM: RPMI-7951
2.92 µM: NCI-H358
> 10 µM: all other assays above
